According to paper PMC6299892 (Journal of Genetic Engineering & Biotechnology, 2016):

Tested on: A. pullulans NAC8 yellow laccase
Experiment: absorbance at […] nm, double reciprocal plot
Type: biochemical, Aureobasidium pullulans
Details: guaiacol 0.1-3.0 mM; standard assay: acetate buffer pH 5.0, 25 °C

Km: 1050 ± 120 µM
Compound: COc1ccccc1O [guaiacol, 2-methoxyphenol]
